Measurements taken from ChEMBL document CHEMBL6087476, “Positive Charge-Concentrated Dimeric Lipopeptides with Enhanced Protease Resistance: A Potential Solution for Systemic Bacterial Infections” (J Med Chem, 2025).
In brackets after ≈: the same amount, converted by molar mass. Activity calls are given as the source filed them. The calls are words filed in the database; no cut-off is given here.

Columns and labels:
Escherichia coli [1] = test: Antimicrobial activity against Escherichia coli ATCC 25922 assessed as increase in absorbance incubated for 20 to 22 hrs in presence of K+ physiological salt; format: functional, organism-based; conditions: time 20-22 hrs
[2] = Toxicity in ICR mouse assessed as body weight change at 5 to 20 mg/kg, ip measured after 3 days; format: organism-based; conditions: in vivo, 72 h, dose 5-20 mg/kg, time 3 day
Salmonella typhimurium [3] = test: Antimicrobial activity against Salmonella typhimurium 14028 assessed as increase in absorbance incubated for 20 to 22 hrs; format: functional, Salmonella enterica subsp. enterica serovar Typhimurium; conditions: Salmonella enterica, time 20-22 hrs
Trypsin [4] = target: T1, Trypsin (Homo sapiens, UniProt P07477+P07478+P35030); test: Stability of compound assessed as trypsin (unknown origin)-mediated compound structural integrity change at 8 mg/ml incubated for 1 to 8 hrs by RP-HPLC analysis; format: ADME, protein assay; conditions: time 1-8 hrs
Lipopolysaccharide (LPS) = test: Binding affinity to Escherichia coli O111:B4 Lipopolysaccharide by fluorescent probe BODIPYTR-cadaverine (BC) assay; conditions: dose 1-16 µM
Escherichia coli [5] = test: Antibacterial activity against Escherichia coli ATCC 25922 injected intraperitoneally in ICR mouse assessed as reduction in symptoms by measuring atrophy of renal glomeruli at 10 mg/kg, ip measured after 12 hrs by H and E staining based assay; format: functional, organism-based
Escherichia coli [6] = test: Antimicrobial activity against Escherichia coli ATCC 25922 assessed as increase in absorbance incubated for 20 to 22 hrs in presence of NH4+ physiological salt; format: functional, organism-based; conditions: time 20-22 hrs
Trypsin [7] = target: T1, Trypsin; test: Stability of compound assessed as trypsin (unknown origin)-mediated compound structural integrity change at 8 mg/ml incubated for 1 to 8 hrs by 16.5% tricine-SDS-PAGE analysis; format: ADME, protein assay; conditions: time 1-8 hrs
Escherichia coli [8] = test: Antimicrobial activity against Escherichia coli ATCC 25922 assessed as increase in absorbance incubated for 20 to 22 hrs; format: functional; conditions: time 20-22 hrs
Cell membrane [9] = test: Induction of Outer membrane permeability in Escherichia coli ATCC 25922 incubated for 30 mins by N-phenyl-1-naphthylamine (NPN) uptake assay; format: subcellular; conditions: dose 1-16 µM
Acinetobacter baumannii = test: Antimicrobial activity against Acinetobacter baumannii AB1901 assessed as increase in absorbance incubated for 20 to 22 hrs; format: functional; conditions: time 20-22 hrs
Cell membrane [10] = test: Induction of depolarization of cytoplasmic membrane (CM) in Escherichia coli ATCC 25922 assessed as fluorescence changes at 1/2 to 3 times of MIC measured after 1000 to 3000 seconds by fluorescent probe DiSC3-5 assay; format: subcellular; conditions: time 1000-3000 sec
Staphylococcus aureus [11] = test: Antimicrobial activity against Staphylococcus aureus 29213 assessed as increase in absorbance incubated for 20 to 22 hrs; format: functional; conditions: time 20-22 hrs
Escherichia coli [12] = test: Bactericidal activity against Escherichia coli ATCC 25922 assessed as reduction in bacterial viability; format: functional, organism-based
Escherichia coli [13] = test: Antimicrobial activity against Escherichia coli K88 assessed as increase in absorbance incubated for 20 to 22 hrs; format: functional; conditions: time 20-22 hrs
[14] = Toxicity in ICR mouse assessed as liver weight change at 5 to 20 mg/kg, ip measured after 3 days; format: organism-based; conditions: in vivo, 72 h, dose 5-20 mg/kg, time 3 day
Escherichia coli [15] = test: Antimicrobial activity against Escherichia coli K99 assessed as increase in absorbance incubated for 20 to 22 hrs; format: functional; conditions: time 20-22 hrs
Escherichia coli [16] = test: Antimicrobial activity against Escherichia coli ATCC 25922 assessed as increase in absorbance incubated for 20 to 22 hrs in presence of […] physiological salt; format: functional, organism-based; conditions: time 20-22 hrs
[17] = Stability of compound assessed as pepsin (unknown origin)-mediated compound structural integrity change at 8 mg/ml incubated for 1 to 8 hrs by RP-HPLC analysis; format: ADME; conditions: human, time 1-8 hrs
[18] = Toxicity in ICR mouse assessed as alanine aminotransferase (ALT) level in serum at 5 to 20 mg/kg, ip measured after 3 days; format: organism-based; conditions: in vivo, 72 h, dose 5-20 mg/kg, time 3 day
Escherichia coli [19] = test: Induction of membrane damage in Escherichia coli ATCC 25922 assessed as ruptured membrane by analysing green fluorescence at 8 uM measured after 1 hr incubation by SYTO - live and dead staining based fluorescence microscopy; format: functional, organism-based
[20] = Toxicity in ICR mouse assessed as humpbacking at 20 mg/kg, ip measured within 1 hr; format: organism-based; conditions: in vivo
Escherichia coli [21] = test: Resistance fold, ratio of MIC for Escherichia coli ATCC 25922 measured after 30 day passage period to MIC for Escherichia coli ATCC 25922; format: functional
Escherichia coli [22] = test: Induction of membrane damage in Escherichia coli ATCC 25922 assessed as ruptured membrane by analysing red fluorescence at 8 uM measured after 1 hr incubation by PI - live and dead staining based fluorescence microscopy; format: functional, organism-based
[23] = tested on: Staphylococcus epidermidis; test: Antimicrobial activity against Staphylococcus epidermidis 12228 assessed as increase in absorbance incubated for 20 to 22 hrs; format: functional; conditions: time 20-22 hrs
Staphylococcus aureus [24] = test: Antimicrobial activity against Staphylococcus aureus 11011 assessed as increase in absorbance incubated for 20 to 22 hrs; format: functional; conditions: time 20-22 hrs
Escherichia coli [25] = test: Induction of ROS accumulation in Escherichia coli ATCC 25922 at 4 uM incubated for 30 mins by DCFH-DA assay; format: functional, organism-based
Escherichia coli [26] = test: Antimicrobial activity against Escherichia coli ATCC 25922 assessed as increase in absorbance incubated for 4 hrs in presence of 12.5% serum; format: functional, organism-based
Chymotrypsin = Chymotrypsin (Homo sapiens, UniProt Q99895+P17538+P40313+Q6GPI1); test: Stability of compound assessed as chymotrypsin (unknown origin)-mediated compound structural integrity change at 8 mg/ml incubated for 1 to 8 hrs by RP-HPLC analysis; format: ADME, protein assay; conditions: time 1-8 hrs
[27] = Hemolytic activity in healthy human RBC assessed as hemolysis incubated for 1 hr by microplate reader; format: toxicity, cell-based; conditions: erythrocyte
HEK-293T = test: Cytotoxicity against human HEK293T cells assessed as cell death measured after 18 to 24 hrs by MTT assay; format: functional; conditions: time 18-24 hrs
Escherichia coli [28] = test: Antimicrobial activity against Escherichia coli ATCC 25922 assessed as increase in absorbance at MIC concentration in presence of < 8 ug/ml Lipopolysaccharide incubated for 8 hrs; format: functional, organism-based; conditions: dose < 8.0 µg/ml
Escherichia coli [29] = test: Antibacterial activity against Escherichia coli ATCC 25922 injected intraperitoneally in ICR mouse assessed as reduction bacterial load in lung at 10 mg/kg, ip measured after 12 hrs by H and E staining based assay; format: functional, organism-based
Escherichia coli [30] = test: Antibacterial activity against Escherichia coli ATCC 25922 injected intraperitoneally in ICR mouse assessed as reduction in symptoms by measuring atrophied red medulla in spleen at 10 mg/kg, ip measured after 12 hrs by H and E staining based assay; format: functional, organism-based
Escherichia coli [31] = test: Inhibition of respiratory chain dehydrogenase (RCD) activity in Escherichia coli ATCC 25922 at 4 uM incubated for 90 mins by TTC assay
[32] = Toxicity in ICR mouse assessed as slight manifestation of stooping at 20 mg/kg, ip measured after 1 hr; format: organism-based; conditions: in vivo
Salmonella typhimurium [33] = test: Antimicrobial activity against Salmonella typhimurium 7731 assessed as increase in absorbance incubated for 20 to 22 hrs; format: functional, Salmonella enterica subsp. enterica serovar Typhimurium; conditions: Salmonella enterica, time 20-22 hrs
Pseudomonas aeruginosa = test: Antimicrobial activity against Pseudomonas aeruginosa 25349 assessed as increase in absorbance incubated for 20 to 22 hrs; format: functional; conditions: time 20-22 hrs
Escherichia coli [34] = test: Antibiofilm activity against Escherichia coli ATCC 25922 biofilm assessed as inhibition of biofilm formation at 2 uM; format: functional, organism-based

CCCCCCCCCC(=O)NCCCC[C@H](N)C(=O)NCC(=O)NCC(=O)NCC(=O)N[C@H](CCCNC(=N)N)C(=O)N[C@@H](CCCNC(=N)N)C(=O)N[C@@H](CCCNC(=N)N)C(=O)N1CCC[C@H]1C(=O)N[C@@H](CSSC[C@H](NC(=O)[C@@H]1CCCN1C(=O)[C@H](CCCNC(=N)N)NC(=O)[C@H](CCCNC(=N)N)NC(=O)[C@@H](CCCNC(=N)N)NC(=O)CNC(=O)CNC(=O)CNC(=O)[C@@H](N)CCCCNC(=O)CCCCCCCCC)C(=O)O)C(=O)O
Activity (Escherichia coli [1]): Active; C-C10)C-C Demonstrated Superior Physiological Salt Tolerance In Comparison To (N-C10)C-C | Activity [2]: Non-toxic | MIC (Salmonella typhimurium [3]): 4 µM (≈ 9.12 µg/mL) | Stability (Trypsin [4]): Stable | Activity (Lipopolysaccharide (LPS)): Dose-dependent-effect | Activity (Escherichia coli [5]): Active | Activity (Escherichia coli [6]): Active; C-C10)C-C Demonstrated Superior Physiological Salt Tolerance In Comparison To (N-C10)C-C | Stability (Trypsin [7]): Stable | MIC (Escherichia coli [8]): 4 µM (≈ 9.12 µg/mL) | Activity (Cell membrane [9]): Dose-dependent-effect | MIC (Acinetobacter baumannii): 4 µM (≈ 9.12 µg/mL) | Activity (Cell membrane [10]): Dose-dependent-effect | MIC (Staphylococcus aureus [11]): 8 µM (≈ 18.2 µg/mL) | Activity (Escherichia coli [12]): Dose-dependent-effect | MIC (Escherichia coli [13]): 2 µM (≈ 4.56 µg/mL) | Activity [14]: Non-toxic | MIC (Escherichia coli [15]): 4 µM (≈ 9.12 µg/mL) | Activity (Escherichia coli [16]): Active; C-C10)C-C Demonstrated Superior Physiological Salt Tolerance In Comparison To (N-C10)C-C | Stability [17]: Stable | Activity [18]: Non-toxic | Activity (Escherichia coli [19]): Active | Activity [20]: Toxic | fold change (FC) (Escherichia coli [21]): <=2 | Activity (Escherichia coli [22]): Active | MIC [23]: 8 µM (≈ 18.2 µg/mL) | MIC (Staphylococcus aureus [24]): 8 µM (≈ 18.2 µg/mL) | Activity (Escherichia coli [25]): Active | Activity (Escherichia coli [26]): Active | Stability (Chymotrypsin): Stable | HC10 [27]: 256 µM | IC10 (HEK-293T): 256 µM | Activity (Escherichia coli [28]): Active | Activity (Escherichia coli [29]): Active | Activity (Escherichia coli [30]): Active | inhibition (Escherichia coli [31]): Active | Activity [32]: Non-toxic | MIC (Salmonella typhimurium [33]): 4 µM (≈ 9.12 µg/mL) | MIC (Pseudomonas aeruginosa): 4 µM (≈ 9.12 µg/mL) | Activity (Escherichia coli [34]): Active
